Measured values taken from patent publication US8563714B2, “Bridged spiro [2.4] heptane derivatives as ALX receptor and/or FPRL2 agonists” (Actelion Pharmaceuticals Ltd., priority 2009, dated 2013).

Columns and labels:
human ALX receptor = molecular target: T1, human ALX receptor (Homo sapiens, UniProt P25090); test: Intracellular calcium measurements (FLIPR), agonistic activity in HEK293-hALXR-Gα16 cells; format: cell-based; conditions: Fluo-4 calcium FLIPR, normalized to WKYMVm 10 nM
T1 construct: expressed in transfected cells; host or cells: HEK293 (HEK293-hALXR-Gα16)
T1 sequence (P25090 1-351): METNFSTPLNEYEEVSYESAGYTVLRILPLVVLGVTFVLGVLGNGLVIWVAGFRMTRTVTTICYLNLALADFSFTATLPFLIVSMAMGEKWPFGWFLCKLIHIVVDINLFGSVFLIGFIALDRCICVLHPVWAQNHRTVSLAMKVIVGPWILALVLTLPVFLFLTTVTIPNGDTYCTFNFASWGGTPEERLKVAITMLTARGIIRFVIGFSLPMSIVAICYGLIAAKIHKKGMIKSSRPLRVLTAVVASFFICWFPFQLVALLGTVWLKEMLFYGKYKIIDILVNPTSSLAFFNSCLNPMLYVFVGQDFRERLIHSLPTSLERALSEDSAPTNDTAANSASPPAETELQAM
Method in brief: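 Agonist-induced calcium flux was recorded by FLIPR (488/540 nm) in HEK293-hALXR-Gα16 cells pre-loaded with Fluo-4 AM (1 μM, 60 min, 37°C). Peak signal above baseline, after subtracting buffer addition, was expressed relative to WKYMVm at 10 nM final.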

human FPRL2 = molecular target: T2, human FPRL2 (Homo sapiens, UniProt P25089); test: Intracellular calcium measurements (FLIPR), agonistic activity in HEK293-hFPRL2-Gα16 cells; format: cell-based; conditions: Fluo-4 calcium FLIPR, normalized to GLY14-Humanin 100 nM
T2 construct: expressed in transfected cells; host or cells: HEK293 (HEK293-hFPRL2-Gα16)
T2 sequence (P25089 1-353): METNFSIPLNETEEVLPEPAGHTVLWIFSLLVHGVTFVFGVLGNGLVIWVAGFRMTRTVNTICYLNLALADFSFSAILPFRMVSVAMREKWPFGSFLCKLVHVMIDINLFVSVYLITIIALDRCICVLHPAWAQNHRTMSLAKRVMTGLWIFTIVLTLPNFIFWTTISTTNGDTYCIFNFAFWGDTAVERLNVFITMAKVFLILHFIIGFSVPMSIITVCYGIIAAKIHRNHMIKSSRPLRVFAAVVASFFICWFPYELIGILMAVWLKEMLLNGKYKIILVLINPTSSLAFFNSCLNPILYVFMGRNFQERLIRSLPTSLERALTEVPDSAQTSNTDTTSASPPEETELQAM
Method in brief: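 Peak values after baseline subtraction are expressed relative to 100 nM Gly14-Humanin; compounds diluted in assay buffer from 10 mM DMSO stocks.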

Row | Structure (SMILES) | EC50 (human ALX receptor) | EC50 (human FPRL2)
1 | NCCCCCNC(=O)C1C(C(=O)Nc2ncc(Br)s2)C2C=CC1C21CC1 [Example 322, (5R)—N^5-(5-Bromo-thiazol-2-yl)-(6R)—N^6-(5-amino-pentyl)-(4S,7R)-[4,7-ethenylene-spiro[2.4]heptane]-5,6-dicarboxamide] | 0.61 nM | 382 nM
2 | O=C(NC1CCNCC1)[C@H]1[C@H](C(=O)Nc2ncc(Br)s2)[C@@H]2C=C[C@H]1C21CC1 [Example 323, (5R)—N^5-(5-Bromo-thiazol-2-yl)-(6R)—N^6-(piperidin-4-yl)-(4S,7R)-[4,7-ethenylene-spiro[2.4]heptane]-5,6-dicarboxamide] | 17 nM | 4690 nM
3 | O=C(NCC1CCNCC1)C1C(C(=O)Nc2ncc(Br)s2)C2C=CC1C21CC1 [Example 324, (5R)—N^5-(5-Bromo-thiazol-2-yl)-(6R)—N^6-(piperidin-4-yl-methyl)-(4S,7R)-[4,7-ethenylene-spiro[2.4]heptane]-5,6-dicarboxamide] | 5.7 nM | 1540 nM
4 | NCC1CCN(C(=O)[C@H]2[C@H](C(=O)Nc3ncc(Br)s3)[C@@H]3C=C[C@H]2C32CC2)CC1 [Example 325, (5R)—N^5-(5-Bromo-thiazol-2-yl)-(6R)—N^6,N^6-(3-(aminomethyl)pentane-1,5-diyl)-(4S,7R)-[4,7-ethenylene-spiro[2.4]heptane]-5,6-dicarboxamide] | 19 nM | > 14100 nM
5 | NCCCCCNC(=O)[C@H]1[C@H](C(=O)NCc2ccc(Br)cc2F)[C@@H]2CC[C@H]1C21CC1 [Example 326, (5R)—N^5-(4-Bromo-2-fluorophenyl-methyl)-(6R)—N^6-(5-amino-pentyl)-(4S,7R)-[4,7-ethylene-spiro[2.4]heptane]-5,6-dicarboxamide] | 22 nM | 930 nM
6 | O=C(NCCCCN1CCCC1)[C@H]1[C@H](C(=O)NCc2ccc(Br)c(F)c2F)[C@@H]2C=C[C@H]1C21CC1 [Example 327, (5R)—N^5-(4-Bromo-2,3-difluorophenyl-methyl)-(6R)—N^6-(4-pyrrolidino-butyl)-(4S,7R)-[4,7-ethenylene-spiro[2.4]heptane]-5,6-dicarboxamide] | 40 nM | 27 nM
7 | O=C(NCCCCN1CCCC1)[C@H]1[C@H](C(=O)NCc2cc(F)c(Br)c(F)c2)[C@@H]2C=C[C@H]1C21CC1 [Example 328, (5R)—N^5-(4-Bromo-3,5-difluorophenyl-methyl)-(6R)—N^6-(4-pyrrolidino-butyl)-(4S,7R)-[4,7-ethenylene-spiro[2.4]heptane]-5,6-dicarboxamide] | 46 nM | 60 nM
8 | O=C(NCCCCN1CCCC1)[C@H]1[C@H](C(=O)NCc2cc(F)c(Br)cc2F)[C@@H]2C=C[C@H]1C21CC1 [Example 329, (5R)—N^5-(4-Bromo-2,5-difluorophenyl-methyl)-(6R)—N^6-(4-pyrrolidino-butyl)-(4S,7R)-[4,7-ethenylene-spiro[2.4]heptane]-5,6-dicarboxamide] | 301 nM | 64 nM
9 | O=C(NC1CCNCC1)[C@H]1[C@H](C(=O)Nc2ncc(Br)s2)[C@@H]2CC[C@H]1C21CC1 [Example 330, (5R)—N^5-(5-Bromo-thiazol-2-yl)-(6R)—N^6-(piperidin-4-yl)-(4S,7R)-[4,7-ethylene-spiro[2.4]heptane]-5,6-dicarboxamide] | 24 nM | 4420 nM
10 | CC(C)(C)OC(=O)NCCCCNC(=O)[C@H]1[C@H](C(=O)Nc2ncc(Br)s2)[C@@H]2CC[C@H]1C21CC1 [Example 332, (5R)—N^5-(5-Bromo-thiazol-2-yl)-(6R)—N^6-(4-tert-butoxycarbonyl-amino-butyl)-(4S,7R)-[4,7-ethylene-spiro[2.4]heptane]-5,6-dicarboxamide] | 467 nM | 3540 nM
11 | CC(C)(C)OC(=O)NCCCCCNC(=O)C1C(C(=O)Nc2ncc(Br)s2)C2CCC1C21CC1 [Example 333, (5R)—N^5-(5-Bromo-thiazol-2-yl)-(6R)—N^6-(5-tert-butoxycarbonyl-amino-pentyl)-(4S,7R)-[4,7-ethylene-spiro[2.4]heptane]-5,6-dicarboxamide] | 519 nM | 1240 nM

Next, values leading:

Row | EC50 (human ALX receptor) | EC50 (human FPRL2) | Structure (SMILES)
12 | 82 nM | 8250 nM | CC(C)CNC(=O)[C@H]1[C@H](C(=O)Nc2ncc(Br)s2)[C@@H]2CC[C@H]1C21CC1 [Example 331, (5R)—N^5-(5-Bromo-thiazol-2-yl)-(6R)—N^6-(isobutyl)-(4S,7R)-[4,7-ethylene-spiro[2.4]heptane]-5,6-dicarboxamide]
13 | 0.45 nM | 230 nM | NCCCCCNC(=O)[C@H]1[C@H](C(=O)Nc2ncc(Br)s2)[C@@H]2CC[C@H]1C21CC1 [Example 334, (5R)—N^5-(5-Bromo-thiazol-2-yl)-(6R)—N^6-(5-amino-pentyl)-(4S,7R)-[4,7-ethylene-spiro[2.4]heptane]-5,6-dicarboxamide]
14 | 0.5 nM | 1300 nM | NCCCCNC(=O)[C@H]1[C@H](C(=O)Nc2ncc(Br)s2)[C@@H]2CC[C@H]1C21CC1 [Example 335, (5R)—N^5-(5-Bromo-thiazol-2-yl)-(6R)—N^6-(4-amino-butyl)-(4S,7R)-[4,7-ethylene-spiro[2.4]heptane]-5,6-dicarboxamide]
15 | 6.2 nM | 1490 nM | NCC1CCN(C(=O)C2C(C(=O)Nc3ncc(Br)s3)C3CCC2C32CC2)CC1 [Example 336, (5R)—N^5-(5-Bromo-thiazol-2-yl)-(6R)—N^6,N^6-(3-(aminomethyl)pentane-1,5-diyl)-(4S,7R)-[4,7-ethylene-spiro[2.4]heptane]-5,6-dicarboxamide]
16 | 7.3 nM | 1210 nM | O=C(NCC1CCNCC1)[C@H]1[C@H](C(=O)Nc2ncc(Br)s2)[C@@H]2CC[C@H]1C21CC1 [Example 337, (5R)—N^5-(5-Bromo-thiazol-2-yl)-(6R)—N^6-(piperidin-4-yl-methyl)-(4S,7R)-[4,7-ethylene-spiro[2.4]heptane]-5,6-dicarboxamide]
17 | 168 nM | 139 nM | O=C(NCCCCN1CCCC1)[C@H]1[C@H](C(=O)Nc2cnc(Br)c(F)c2)[C@@H]2C=C[C@H]1C21CC1 [Example 338, (5R)—N^5-(2-Bromo-3-fluoro-pyridin-5-yl)-(6R)—N^6-(4-pyrrolidino-butyl)-(4S,7R)-[4,7-ethenylene-spiro[2.4]heptane]-5,6-dicarboxamide]
18 | > 2390 nM | 100 nM | CC(C)(C)C1CCC(NC(=O)C2C(C(=O)NCCCCN3CCCC3)C3C=CC2C32CC2)CC1 (stereo not drawn) [Example 342, (5R*)—N^5-(4-tert-Butyl-cyclohexyl)-(6R*)—N^6-(4-pyrrolidino-butyl)-(4S*,7R*)-[4,7-ethenylene-spiro[2.4]heptane]-5,6-dicarboxamide]
19 | 3900 nM | 30 nM | Cc1ccc(CCNC(=O)C2C(C(=O)NCCCCN3CCCC3)C3C=CC2C32CC2)cc1 (stereo not drawn) [Example 381, (5R*)—N^5-(2-(4-Methylphenyl)ethyl)-(6R*)—N^6-(4-pyrrolidino-butyl)-(4S*,7R*)-[4,7-ethenylene-spiro[2.4]heptane]-5,6-dicarboxamide]
20 | 6360 nM | 52 nM | O=C(NCCCCN1CCCC1)C1C(C(=O)NCCc2ccc(F)cc2)C2C=CC1C21CC1 (stereo not drawn) [Example 382, (5R*)—N^5-(2-(4-Fluorophenyl)ethyl)-(6R*)—N^6-(4-pyrrolidino-butyl)-(4S*,7R*)-[4,7-ethenylene-spiro[2.4]heptane]-5,6-dicarboxamide]
